# In US20240109897A1, “MODULATORS OF FPR1 AND METHODS OF USING THE SAME” (BEIJING TIANTAN HOSPITAL, priority 2021, published 2024):
# pIC50: −log10 of the molar value.
# Columns and labels:
# [1] = target: T1, FPR1 (UniProt P21462); assay: fMLP-FPR1 mediated calcium signaling assay in FPR1-overexpressing 293T cells; type: cell-based, human or mouse; settings: inhibition of fMLP-FPR1 mediated intracellular calcium change; hFPR1 or mFPR1 overexpressing 293T cells; 10 min preincubation; INDO-1 AM, FACS
# T1 sequence (P21462 1-350): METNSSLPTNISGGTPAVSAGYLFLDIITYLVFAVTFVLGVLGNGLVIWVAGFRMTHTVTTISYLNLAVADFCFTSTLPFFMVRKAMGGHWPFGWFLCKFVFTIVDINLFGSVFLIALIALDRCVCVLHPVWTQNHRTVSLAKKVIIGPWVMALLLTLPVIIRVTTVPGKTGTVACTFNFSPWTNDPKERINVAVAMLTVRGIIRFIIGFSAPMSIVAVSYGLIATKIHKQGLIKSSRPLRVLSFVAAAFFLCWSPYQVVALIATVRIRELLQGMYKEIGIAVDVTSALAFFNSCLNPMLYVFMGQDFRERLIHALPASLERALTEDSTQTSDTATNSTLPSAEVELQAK
# Description: The effects of the compounds of this disclosure on regulating the FPR1-mediated cell signaling were measured by monitoring the cellular calcium level change, as illustrated by the exemplary examples in Table 2. The dose response of the illustrated examples are reported categorically using the following ranking criteria: *** (IC50≤100 nM); ** (IC50≥100 to ≤1000 nM); * (IC50≥1000 to ≤10,000 nM); N.D.—not detected.
# The coding DNA sequence (CDS) of human FPR1 (NM_001193306) and mouse FPR1 (NM_013521) were cloned and inserted to the lentivirus vector GV367 (Vector information:http://www.genechem.com.cn/index/supports/tool_search.html?keywords=GV367) under the conduction of pCMV promoter. 293T cells were cultured in H-DMEM supplemented with 10% FBS and 1% penicillin-streptomycin (PS) at 37° C. in 5% CO2 Incubator. 293T cells were transfected with lentivirus vector GV367 containing the CDS of human or mouse FPR1 for 24 h and then cultured with complete medium for another 48 h. At 72 h after transfected, cells were passaged, and 5 μg/ml puromycin was added to screen FPR1-transfected 293T cells. The overexpression of human or mouse FPR1 in 293 T cells were detected by immunostaining with anti-mouse or human FPR1 antibodies (Biolegend or Antibody Online).
# Cultured hFPR1 or mFPR1 overexpressing 293T cells were labeled with 1 μM INDO-1 AM calcium sensor dye (eBioscience) for 30 min at 37° C. After washed with 1×PBS, cells were resuspended with H-DMEM containing 3% FBS, and were maintained on ice prior to the measurement of intracellular calcium concentration. To measure the inhibitory potency of designed potential FPR1 antagonists, hFPR1 or mFPR1 overexpressing 293T cells were incubated with the compound for 10 min at room temperature. The cytoplasmic calcium levels were then measured by FACS Aria III at 37° C. prior to and after the stimulation of fMLP. We defined the immunofluorescence intensity of indo-1 AM before adding fMLP as the basal value, and the intensity at the peak immunofluorescence reduction after adding fMLP as minimum value for each sample. The change of intracellular calcium was calculated as follow: (basal value−minimum value)/basal value×100%. The IC50 of each compound in inhibiting fMLP-FPR1 mediated intracellular calcium concentration in 293T cells were automatically calculated with Prism 8.0.2 software (GraphPad) after inputting a series of change of intracellular calcium at multiple concentration gradients (from 0 nM to 100 μM).
# [2] = tested on: ICH mice; assay: Brain infiltrating neutrophils by flow cytometry in ICH mouse model; type: in vivo; settings: vs vehicle
# Text: The intracerebral hemorrhage (ICH) model in mice was used to illustrate the protective benefits of the compounds of this disclosure, and FIG. 1 depicts the procedure in preparing this model. ICH was induced in C57 B/L6 male mice by the injection of an autologous blood or collagenase as previously described (Lauer et al., Circulation 124: 1654-1662 (2011); Rynkowski et al., Nat. Protoc. 3:122-128 (2008)). Mice were anesthetized using isoflurane inhalation and fixed on a stereotactic frame. A burr hole was drilled on the right side of the skull at 2.3 mm lateral to the midline and 0.5 mm anterior to the bregma. For the autologous blood model, 30 μl of non-heparinized blood was withdrawn from the angular vein. The first 5 μl blood was injected at a depth of 3 mm beneath the hole, and the rest 25 μl blood were injected at 3.7 mm beneath the hole with a rate of 1 μl/min. In the collagenase model, 0.038 U of the bacterial collagenase (in 0.5 μl saline) was infused to the striatum (0.5 mm anterior, 2.3 mm right lateral, and 3.5 mm deep relative to bregma) at a speed of 0.5 μl/min. […]
# Single cell suspension of brain tissues was prepared and stained with fluorochrome-conjugated antibodies. […] Flow cytometric measurements were performed on a FACS Aria III (BD Bioscience) and analyzed using Flowjo 7.6 software (Informer Technologies, Ashland, OR, USA).
# [3] = tested on: ICH mice; assay: MRI lesion, hematoma and perihematomal edema volume in intracerebral hemorrhage (ICH) mouse model; type: in vivo; settings: 5 mg/kg/daily i.p., first dose 1 h after ICH onset, vs vehicle
# Text: The intracerebral hemorrhage (ICH) model in mice was used to illustrate the protective benefits of the compounds of this disclosure, and FIG. 1 depicts the procedure in preparing this model. ICH was induced in C57 B/L6 male mice by the injection of an autologous blood or collagenase as previously described (Lauer et al., Circulation 124: 1654-1662 (2011); Rynkowski et al., Nat. Protoc. 3:122-128 (2008)). Mice were anesthetized using isoflurane inhalation and fixed on a stereotactic frame. A burr hole was drilled on the right side of the skull at 2.3 mm lateral to the midline and 0.5 mm anterior to the bregma. For the autologous blood model, 30 μl of non-heparinized blood was withdrawn from the angular vein. The first 5 μl blood was injected at a depth of 3 mm beneath the hole, and the rest 25 μl blood were injected at 3.7 mm beneath the hole with a rate of 1 μl/min. In the collagenase model, 0.038 U of the bacterial collagenase (in 0.5 μl saline) was infused to the striatum (0.5 mm anterior, 2.3 mm right lateral, and 3.5 mm deep relative to bregma) at a speed of 0.5 μl/min. Mice on the sham control were injected with an equal volume of saline. Throughout the procedure, the body temperature was maintained at 37° C. with a homeothermic blanket. After the surgery, mice were under observation with free access to food and water. […]
# The total lesion volume was measured on the 7T small-animal MM scanner (Bruker, Corp., USA) as described (Li et al., 2017). The T2-weighted water imaging was recorded with following parameters (repetition time (TR)=4500 ms, echo time (TE)=65.5 ms, field of view (FOV)=28×28 mm^2, image matrix=256×256, at 0.5-mm slice thickness). […] The volumes were manually outlined and calculated by multiplying the sum of the volume by the distance between sections (0.5 mm) using MIPAV software. PHE volumes were calculated as total lesion volume minus hematoma volume. MRI data were analyzed by two investigators blinded to experimental groups.
structure (smiles),measurement,setting,value
"Cc1ccc(O)c(-c2[nH]nc3c2C(c2ccc(C(F)(F)F)cc2)N(C2CCOCC2)C3=O)c1 (racemic) [Compound 1, Rac-3-(2-hydroxy-5-methylphenyl)-5-(tetrahydro-2H-pyran-4-yl)-4-(4-(trifluoromethyl)phenyl)-4,5-dihydropyrrolo[3,4-c]pyrazol-6(2H)-one]",pIC50,[1],6.00 to 7.00
same,reduction of total number of brain-infiltrated neutrophils,"[2]; Day 3, 5 mg/kg i.p.",54%
same,reduction of total number of brain-infiltrated neutrophils,"[2]; Day-1, 5 mg/kg i.p.",47%
same,perihematomal edema (PHE) size,[3],significantly reduced
